Test results as given in patent publication US12122763B2, “Substituted piperidines for androgen receptor degradation” (UBIX THERAPEUTICS, INC., priority 2020, dated 2024).

Target: T1, Androgen Receptor (AR) protein (Homo sapiens, UniProt P10275, T878A)
T1 construct: endogenous in cells; host or cells: LNCaP
Assay: Androgen Receptor (AR) protein degradation assay in LNCaP cells, western blotting
Format: cell-based
Details: 20 h; for inhibition at 0.01 µM: 0.01 μM compound; for inhibition at 0.1 µM: 0.1 μM compound; for inhibition at 1 µM: 1 μM compound
Summary of the method: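 LNCaP prostate cancer cells were cultured 3 days, then treated with compound for 20 h. Lysates in 1% SDS buffer were normalised by BCA, and 8 μg protein was run on 4–12% Bis-Tris gels. AR was immunoblotted with chemiluminescence, using GAPDH/β-actin as loading controls.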

T1 sequence (P10275 whole entry T878A): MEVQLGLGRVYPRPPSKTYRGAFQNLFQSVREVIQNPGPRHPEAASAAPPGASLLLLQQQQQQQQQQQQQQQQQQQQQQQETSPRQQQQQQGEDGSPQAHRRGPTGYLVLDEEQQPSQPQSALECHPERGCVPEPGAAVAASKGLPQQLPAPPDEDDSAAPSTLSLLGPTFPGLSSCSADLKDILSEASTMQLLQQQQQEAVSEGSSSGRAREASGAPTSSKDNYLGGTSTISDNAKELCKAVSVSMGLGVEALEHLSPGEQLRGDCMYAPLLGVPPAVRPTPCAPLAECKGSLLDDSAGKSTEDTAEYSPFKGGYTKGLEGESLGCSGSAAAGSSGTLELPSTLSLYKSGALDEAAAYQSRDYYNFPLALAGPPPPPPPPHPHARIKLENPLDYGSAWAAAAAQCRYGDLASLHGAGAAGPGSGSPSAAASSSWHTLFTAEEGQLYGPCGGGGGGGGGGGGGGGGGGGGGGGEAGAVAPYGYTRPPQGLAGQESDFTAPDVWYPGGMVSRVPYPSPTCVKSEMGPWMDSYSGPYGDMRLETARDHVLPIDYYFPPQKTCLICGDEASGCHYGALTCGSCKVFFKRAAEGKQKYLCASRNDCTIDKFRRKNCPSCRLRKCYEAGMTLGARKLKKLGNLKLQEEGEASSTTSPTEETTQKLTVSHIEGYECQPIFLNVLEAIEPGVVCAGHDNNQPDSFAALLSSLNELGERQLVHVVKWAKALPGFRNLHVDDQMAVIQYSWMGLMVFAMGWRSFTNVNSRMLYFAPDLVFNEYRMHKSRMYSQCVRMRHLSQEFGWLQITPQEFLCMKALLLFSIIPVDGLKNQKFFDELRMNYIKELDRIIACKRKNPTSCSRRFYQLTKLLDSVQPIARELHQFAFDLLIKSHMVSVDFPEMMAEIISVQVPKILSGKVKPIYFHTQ
T1 sequence (Q96SW2 whole entry partner): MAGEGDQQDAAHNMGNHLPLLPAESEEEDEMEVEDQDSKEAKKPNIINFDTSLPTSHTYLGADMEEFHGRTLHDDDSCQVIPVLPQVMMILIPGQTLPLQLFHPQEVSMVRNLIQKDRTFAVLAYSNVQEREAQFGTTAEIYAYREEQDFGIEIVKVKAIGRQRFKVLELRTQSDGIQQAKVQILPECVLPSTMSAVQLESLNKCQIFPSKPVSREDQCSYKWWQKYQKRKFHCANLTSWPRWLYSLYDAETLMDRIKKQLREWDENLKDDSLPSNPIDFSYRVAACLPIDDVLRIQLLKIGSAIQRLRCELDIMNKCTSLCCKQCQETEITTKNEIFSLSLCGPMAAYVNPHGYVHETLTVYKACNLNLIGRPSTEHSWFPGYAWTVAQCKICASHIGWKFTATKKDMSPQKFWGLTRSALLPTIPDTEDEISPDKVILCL

SMILES	inhibition at 0.01 µM	inhibition at 0.1 µM	inhibition at 1 µM
N#Cc1ccc(N2CCC(C(=O)Nc3ccc(N4CCC(C(=O)N5CC6(CCN(c7ccc8c(c7)C(=O)N(C7CCC(=O)NC7=O)C8=O)CC6)C5)CC4)cn3)CC2)cc1C(F)(F)F (stereo not drawn) [Example 154, 1-(4-cyano-3-(trifluoromethyl)phenyl)-N-(5-(4-(7-(2-(2,6-dioxopiperidin-3-yl)-1,3-dioxoisoindolin-5-yl)-2,7-diazaspiro[3.5]nonane-2-carbonyl)piperidin-1-yl)pyridin-2-yl)piperidine-4-carboxamide]	26%	86%	91%
N#Cc1ccc(N2CCC(C(=O)Nc3cnc(N4CCC(CN5CC6(CCN(c7ccc8c(c7)C(=O)N(C7CCC(=O)NC7=O)C8=O)CC6)C5)CC4)cn3)CC2)cc1C(F)(F)F (stereo not drawn) [Example 155, 1-(4-cyano-3-(trifluoromethyl)phenyl)-N-(5-(4-((7-(2-(2,6-dioxopiperidin-3-yl)-1,3-dioxoisoindolin-5-yl)-2,7-diazaspiro[3.5]nonan-2-yl)methyl)piperidin-1-yl)pyrazin-2-yl)piperidine-4-carboxamide]	38%	89%	98%
N#Cc1ccc(N2CCC(C(=O)Nc3cnc(N4CCC(CCN5CCN(c6ccc7c(c6)C(=O)N(C6CCC(=O)NC6=O)C7=O)CC5)CC4)cn3)CC2)cc1C(F)(F)F (stereo not drawn) [Example 156, 1-(4-cyano-3-(trifluoromethyl)phenyl)-N-(5-(4-(2-(4-(2-(2,6-dioxopiperidin-3-yl)-1,3-dioxoisoindolin-5-yl)piperazin-1-yl)ethyl)piperidin-1-yl)pyrazin-2-yl)piperidine-4-carboxamide]	35%	76%	96%
N#Cc1ccc(N2CCC(C(=O)Nc3ncc(N4CCC(CN5CCN(CC6CCN(c7ccc8c(c7)C(=O)N(C7CCC(=O)NC7=O)C8=O)CC6)CC5)CC4)cn3)CC2)cc1C(F)(F)F (stereo not drawn) [Example 157, 1-(4-cyano-3-(trifluoromethyl)phenyl)-N-(5-(4-((4-((1-(2-(2,6-dioxopiperidin-3-yl)-1,3-dioxoisoindolin-5-yl)piperidin-4-yl)methyl)piperazin-1-yl)methyl)piperidin-1-yl)pyrimidin-2-yl)piperidine-4-carboxamide]	0%	33%	78%
N#Cc1ccc(N2CCC(C(=O)Nc3ncc(N4CCC(CN5CCN(C[C@H]6CCN(c7ccc8c(c7)C(=O)N(C7CCC(=O)NC7=O)C8=O)C6)CC5)CC4)cn3)CC2)cc1C(F)(F)F (stereo partly drawn) [Example 158, 1-(4-cyano-3-(trifluoromethyl)phenyl)-N-(5-(4-((4-(((3R)-1-(2-(2,6-dioxopiperidin-3-yl)-1,3-dioxoisoindolin-5-yl)pyrrolidin-3-yl)methyl)piperazin-1-yl)methyl)piperidin-1-yl)pyrimidin-2-yl)piperidine-4-carboxamide]	-7%	27%	65%
N#Cc1ccc(N2CCC(C(=O)Nc3ncc(N4CCC(CN5CCN(CC6CCN(c7cc8c(cc7F)C(=O)N(C7CCC(=O)NC7=O)C8=O)CC6)CC5)CC4)cn3)CC2)cc1C(F)(F)F (stereo not drawn) [Example 159, 1-(4-cyano-3-(trifluoromethyl)phenyl)-N-(5-(4-((4-((1-(2-(2,6-dioxopiperidin-3-yl)-6-fluoro-1,3-dioxoisoindolin-5-yl)piperidin-4-yl)methyl)piperazin-1-yl)methyl)piperidin-1-yl)pyrimidin-2-yl)piperidine-4-carboxamide]	-16%	-5%	84%
N#Cc1ccc(N2CCC(C(=O)Nc3ncc(N4CCC(CN5CCN(C[C@H]6CCN(c7cc8c(cc7F)C(=O)N(C7CCC(=O)NC7=O)C8=O)C6)CC5)CC4)cn3)CC2)cc1C(F)(F)F (stereo partly drawn) [Example 160, 1-(4-cyano-3-(trifluoromethyl)phenyl)-N-(5-(4-((4-(((3R)-1-(2-(2,6-dioxopiperidin-3-yl)-6-fluoro-1,3-dioxoisoindolin-5-yl)pyrrolidin-3-yl)methyl)piperazin-1-yl)methyl)piperidin-1-yl)pyrimidin-2-yl)piperidine-4-carboxamide]	-19%	4%	71%
N#Cc1ccc(N2CCC(C(=O)Nc3ccc(CN4CCC(CN5CCN(c6ccc7c(c6)C(=O)N(C6CCC(=O)NC6=O)C7=O)CC5)CC4)cn3)CC2)cc1C(F)(F)F (stereo not drawn) [Example 161, 1-(4-cyano-3-(trifluoromethyl)phenyl)-N-(5-((4-((4-(2-(2,6-dioxopiperidin-3-yl)-1,3-dioxoisoindolin-5-yl)piperazin-1-yl)methyl)piperidin-1-yl)methyl)pyridin-2-yl)piperidine-4-carboxamide]	9%	58%	86%
N#Cc1ccc(N2CCC(C(=O)Nc3ccc(CN4CCN(CC5CCN(c6ccc7c(c6)C(=O)N(C6CCC(=O)NC6=O)C7=O)CC5)CC4)cn3)CC2)cc1C(F)(F)F (stereo not drawn) [Example 162, 1-(4-cyano-3-(trifluoromethyl)phenyl)-N-(5-((4-((1-(2-(2,6-dioxopiperidin-3-yl)-1,3-dioxoisoindolin-5-yl)piperidin-4-yl)methyl)piperazin-1-yl)methyl)pyridin-2-yl)piperidine-4-carboxamide]	62%	95%	97%
N#Cc1ccc(N2CCC(C(=O)Nc3ccc(CN4CCC(CN5CCC(Oc6ccc7c(c6)C(=O)N(C6CCC(=O)NC6=O)C7=O)CC5)CC4)cn3)CC2)cc1C(F)(F)F (stereo not drawn) [Example 163, 1-(4-cyano-3-(trifluoromethyl)phenyl)-N-(5-((4-((4-((2-(2,6-dioxopiperidin-3-yl)-1,3-dioxoisoindolin-5-yl)oxy)piperidin-1-yl)methyl)piperidin-1-yl)methyl)pyridin-2-yl)piperidine-4-carboxamide]	-14%	60%	78%
N#Cc1ccc(N2CCC(C(=O)Nc3ccc(CC4CCN(CC5CCN(c6ccc7c(c6)C(=O)N(C6CCC(=O)NC6=O)C7=O)CC5)CC4)cn3)CC2)cc1C(F)(F)F (stereo not drawn) [Example 164, 1-(4-cyano-3-(trifluoromethyl)phenyl)-N-(5-((1-((1-(2-(2,6-dioxopiperidin-3-yl)-1,3-dioxoisoindolin-5-yl)piperidin-4-yl)methyl)piperidin-4-yl)methyl)pyridin-2-yl)piperidine-4-carboxamide]	79%	96%	97%
N#Cc1ccc(N2CCC(C(=O)Nc3ccc(CCN4CCC(CN5CCN(c6ccc7c(c6)C(=O)N(C6CCC(=O)NC6=O)C7=O)CC5)CC4)cn3)CC2)cc1C(F)(F)F (stereo not drawn) [Example 165, 1-(4-cyano-3-(trifluoromethyl)phenyl)-N-(5-(2-(4-((4-(2-(2,6-dioxopiperidin-3-yl)-1,3-dioxoisoindolin-5-yl)piperazin-1-yl)methyl)piperidin-1-yl)ethyl)pyridin-2-yl)piperidine-4-carboxamide]	42%	87%	95%
N#Cc1ccc(N2CCC(C(=O)Nc3ccc(CCN4CCN(CC5CCN(c6ccc7c(c6)C(=O)N(C6CCC(=O)NC6=O)C7=O)CC5)CC4)cn3)CC2)cc1C(F)(F)F (stereo not drawn) [Example 166, 1-(4-cyano-3-(trifluoromethyl)phenyl)-N-(5-(2-(4-((1-(2-(2,6-dioxopiperidin-3-yl)-1,3-dioxoisoindolin-5-yl)piperidin-4-yl)methyl)piperazin-1-yl)ethyl)pyridin-2-yl)piperidine-4-carboxamide]	69%	96%	97%
N#Cc1ccc(N2CCC(C(=O)Nc3ccc(CCN4CCC(Oc5ccc6c(c5)C(=O)N(C5CCC(=O)NC5=O)C6=O)CC4)cn3)CC2)cc1C(F)(F)F (stereo not drawn) [Example 167, 1-(4-cyano-3-(trifluoromethyl)phenyl)-N-(5-(2-(4-((2-(2,6-dioxopiperidin-3-yl)-1,3-dioxoisoindolin-5-yl)oxy)piperidin-1-yl)ethyl)pyridin-2-yl)piperidine-4-carboxamide]	25%	67%	85%
N#Cc1ccc(N2CCC(C(=O)Nc3ccc(OCCN4CCN(CC5CCN(c6ccc7c(c6)C(=O)N(C6CCC(=O)NC6=O)C7=O)CC5)CC4)cn3)CC2)cc1C(F)(F)F (stereo not drawn) [Example 168, 1-(4-cyano-3-(trifluoromethyl)phenyl)-N-(5-(2-(4-((1-(2-(2,6-dioxopiperidin-3-yl)-1,3-dioxoisoindolin-5-yl)piperidin-4-yl)methyl)piperazin-1-yl)ethoxy)pyridin-2-yl)piperidine-4-carboxamide]	73%	97%	99%
N#Cc1ccc(N2CCC(C(=O)Nc3ccc(OC4CCN(CC5CCN(c6cc7c(cc6F)C(=O)N(C6CCC(=O)NC6=O)C7=O)CC5)CC4)cn3)CC2)cc1C(F)(F)F (stereo not drawn) [Example 170, 1-(4-cyano-3-(trifluoromethyl)phenyl)-N-(5-((1-((1-(2-(2,6-dioxopiperidin-3-yl)-6-fluoro-1,3-dioxoisoindolin-5-yl)piperidin-4-yl)methyl)piperidin-4-yl)oxy)pyridin-2-yl)piperidine-4-carboxamide]	52%	90%	97%
N#Cc1ccc(N2CCC(C(=O)Nc3ccc(OC4CCN(CC5CN(c6ccc7c(c6)C(=O)N(C6CCC(=O)NC6=O)C7=O)C5)CC4)cn3)CC2)cc1C(F)(F)F (stereo not drawn) [Example 171, 1-(4-cyano-3-(trifluoromethyl)phenyl)-N-(5-((1-((1-(2-(2,6-dioxopiperidin-3-yl)-1,3-dioxoisoindolin-5-yl)azetidin-3-yl)methyl)piperidin-4-yl)oxy)pyridin-2-yl)piperidine-4-carboxamide]	69%	93%	95%
